What was measured:
[1] = system: sinusitis; test: Inhalation exposure of the inventor to androstenone released from a polyethylene bag: sinusitis signs and symptoms; format: in vivo; details: human (inventor); about 500 mg in polyethylene bag; about five to seven days of exposure, two to eight hours per day
Description: (§1) For example, increased strength was evidenced by an at least 5-10%, and more typically 10-20% increase of weight that was lifted as compared to the same exercise before exposure to the pheromone.
Therefore, it is also contemplated that the compositions and methods presented herein may present a convenient matter to treat and/or alleviate signs and symptoms of airway inflammation. Most preferably, such inflammation may be sinusitis, asthma, and allergic airway inflammation. In yet other contemplated aspects, additional behavioral effects may be advantageously conferred by use of contemplated compositions and methods, especially including feeling of increased energy, sexual desire, and self-confidence.

[2] = system: exercise strength and stamina; test: Inhalation exposure of the inventor to androstenone released from a polyethylene bag: exercise strength and stamina; format: in vivo; details: human (inventor), after about five to seven days of exposure
Description: as §1
With respect to the effects afforded by contemplated compositions and devices, it is generally contemplated that the steroid pheromones will exert both a desirable behavioral effect as well as a desirable non-behavioral effect. […] The term “exercise strength” as used herein refers to an ability to lift a particular weight in a given exercise routine (e.g., lifting of 100 pounds on a bench press). Thus, where exercise strength is increased, heavier weights can be lifted. Most typically the increase in exercise strength is between 5 and 40%, and more typically between 10 and 25%. […] The term “exercise stamina” as used herein refers to an ability to lift a particular weight in a given exercise routine for a maximum of repeats Rmax (e.g., lifting of 100 pounds on a bench press ten times). Thus, where exercise stamina is increased, the weight can be lifted more that Rmax times. Most typically the increase in exercise strength is between 5 and 30%, and more typically between 10 and 20%.

C[C@]12CCC(=O)C[C@@H]1CC[C@@H]1[C@@H]2CC[C@]2(C)C=CC[C@@H]12 [androstenone, 5α-androst-16-en-3-one]
signs and symptoms of a previously diagnosed sinusitis [1]: all signs and symptoms of a previously diagnosed sinusitis had disappeared
increase of weight that was lifted as compared to the same exercise before exposure (exercise strength) ([2]; 'at least'): 5-10%
increase of weight that was lifted as compared to the same exercise before exposure (exercise strength) ([2]; 'more typically'): 10-20%
increase in number of repeats per exercise (exercise stamina) ([2]; 'most typically'): 5-20%

— patent US20070048231A1, “Pheromone compositions and methods” (priority 2005, published 2007)
